Columns and labels:
[1] = test system: N. gonorrheae (Ceftriaxone Resistant); assay: N-Assay antibiotic susceptibility, N. gonorrheae with Ceftriaxone (Example 6); format: cell-based, Neisseria gonorrheae; settings: With Ceftriaxone Present, 2 μg/ml
Procedure: (§1) Prior to performing the N-Assay, bacterial cultures were prepared as follows in order to establish the sensitivity of the assay. An inoculum was taken from a stock culture, and plated onto solid phase nutrient agar and incubated overnight at 37° C. E. faecalis, E. faecium (Vancomycin-Resistant Enterococcus, or VRE) and GBS isolates were plated onto colistin and naladixic acid agar, and N. gonorrheae was plated onto chocolate agar. The gonorrheal culture was performed in a CO2 incubator. Following an overnight culture, an isolated colony was selected of each bacterial species, and the isolated colonies were sub-cultured on solid phase for an additional 24 hours to ensure adequate viability was maintained. Following this, isolated cultures were used to inoculate nutrient broth (LIM broth was used for GBS, Fastidious broth with isovitalex 2% v/v for N. gonorrheae, and BHI broth was used for E. faecalis, E. faecium). A 0.5 McFarland was prepared for each bacterial species, and these were then diluted serially down to 10^−3 in nutrient broth and the OD630 immediately was determined. For each dilution, aliquots were obtained and agar plates were inoculated. The agar plates then were incubated at 37° C. for 24 hours, and the number of colony forming units (CFU) was determined for each bacterial species at each dilution. This was used to generate a standard curve, so that future dilutions when prepared could be developed with known concentrations of bacteria. […] A similar curve was generated for each bacteria studied.
(§2) Antibodies against selected bacteria were diluted 1:100 in coating buffer (carbonate bicarbonate buffer), and 100 μl were placed in microtiter wells and allowed to stand overnight at 4° C. The following day, wells were washed with PBS TWEEN 20 three times, and then blocked with 200 μl of STARTINGBLOCK for 30 minutes at room temperature. Following blocking, wells were washed three times with PBS TWEEN 20, and plates were either stored at 4° C. with a sterile cover placed over them for later use, or used immediately.
(§3) To determine antibiotic susceptibility of the four strains of bacteria, a 0.5 Mcfarland was prepared in nutrient broth and serially dilutions were established. The dilutions were incubated overnight for 18-24 hours at 37° C. (in a CO2 incubator for N. gonorrheae) with specific antibiotics. Parallel dilutions were prepared of each bacterium, in the presence and absence of specific antibiotics, as follows: (1) for E. faecalis, E. faecium, Penicillin G was added in varying concentrations, and as these concentrations were held constant, the bacterial concentration was diluted out; (2) the same parameters were set for GBS with the antibiotic clindamycin; and (3) the same parameters were set for N. gonorrheae with the antibiotic ceftriaxone.
(§4) Following overnight incubation in the presence or absence of the selected antibiotics, 100 μl of the bacterial suspensions were placed into previously coated wells, and plates were allowed to stand at room temperature for 15 minutes. After washing with PBS TWEEN 20 three times, 100 μl of HRP-conjugated antibody directed against the specific bacteria was added in a 1:100 dilution, and allowed to stand at room temperature for 7 minutes. Wells were washed three times with PBS TWEEN 20, and bound antibody was detected by the addition of 100 μl of TMB substrate. OD450) was read after allowing the plate to stand for 3 minutes at room temperature and stopping the reaction with stop solution (KPL).
(§5) After adding stop solution, wells were read at OD450. […] Alternatively, wells were determined to be positive if they turned yellow after addition of the stop solution, if a plate reader was not available.
(§6) These studies were repeated for E. faecalis, E. faecium and N. gonorrheae. For E. faecalis and E. faecium, Penicillin G was used to distinguish between E. faecalis and E. faecium, as E. faecium is resistant to Penicillin G. For N. gonorrheae, the antibiotic used was ceftriaxone.

[2] = test system: N. gonorrheae (Ceftriaxone Sensitive); assay: as above; format: cell-based, Neisseria gonorrheae; settings: summary of Table 3
Procedure: as §1, §2, §3, §4, §5, §6

[3] = test system: Clindamycin Resistant Strain (GBS 11276); assay: N-Assay antibiotic susceptibility, GBS with Clindamycin (Example 6); format: cell-based, Group B Streptococcus (GBS); settings: for Detection of GBS: With Clindamycin Present, 4 μg/ml, 18 hour incubation in nutrient broth, resistant strain GBS 11276
Procedure: as §1, §2, §3
as §4, with “After washing with PBS TWEEN 20 three times, 100 μl of HRP-conjugated antibody directed against the specific bacteria was added in a 1:100 dilution, and allowed to stand at room temperature for 7 minutes.” left out
After adding stop solution, wells were read at OD450. […] Alternatively, wells were determined to be positive if they turned yellow after addition of the stop solution, if a plate reader was not available. […]

[4] = test system: Enterococcus faecalis (Penicillin Sensitive); assay: N-Assay antibiotic susceptibility, Enterococcus with Penicillin G (Example 6); format: cell-based; settings: for Detection of Enterococcus faecalis: With Penicillin Present, 8 μg/ml Penicillin G, 18 hour incubation in nutrient broth
Procedure: as §1, §2, §3, §4, §5, §6

[5] = test system: Enterococcus faecium (Penicillin Resistant, i.e., VRE); assay: as above; format: cell-based; settings: for Detection of Enterococcus faecium: With Penicillin Present, 8 μg/ml Penicillin G, 18 hour incubation in nutrient broth
Procedure: as §1, §2, §3, §4, §5, §6

[6] = test system: penicillin-resistant (Pen-R) Strain 31426; assay: Simultaneous identification of N. gonorrheae and antimicrobial susceptibility (Example 4); format: cell-based
Procedure: (§7) Two strains of N. gonorrheae, penicillin-sensitive (Pen-S) Strain 1279 and penicillin-resistant (Pen-R) Strain 31426, were cultured overnight on Gc agar. A 0.5 McFarland was prepared immediately before wells were to be inoculated, and the two strains were each diluted to a concentration of 10^8 in FB. The bacteria-containing FB for each strain was split into four tubes, in which a different concentration of penicillin was added to each of the tubes of the two strains: 2.0 μg/ml, 1.0 μg/ml, 0.5 μg/ml, and buffer alone as a negative control. Microtiter wells were coated with 100 μl of a 1:200 dilution of rabbit polyclonal antibody directed against N. gonorrheae, and allowed to stand at 4 degrees Celsius overnight. […] Following blocking, wells were again washed three times with PBS. At this stage, the plates were either used immediately, or stored at 4 degrees Celsius for later use. Upon proceeding with the assay, 100 μl of the 10^8 dilution of the two strains of N. gonorrheae were placed in individual wells. The wells were shaken gently on a plate stirrer at room temperature for 15 minutes. Next, wells were washed three times with PBS, and 100 μl of an HRP-conjugated rabbit polyclonal antibody (1:50 dilution in PBS) directed against N. gonorrheae was added to the wells and incubated at room temperature for 5 minutes. Wells were washed three times with PBS, and then bound antibody was detected by the addition of 100 μl of TMB substrate. OD450) was read after allowing the plate to stand for three minutes at room temperature and stopping the reaction with stop solution (KPL). Negative controls consisted of the same preceding steps, but the addition of bacteria was omitted.

[7] = test system: penicillin-sensitive (Pen-S) Strain 1279; assay: as above; format: cell-based; settings: penicillin 0.5, 1.0, 2.0 μg/ml, 10^8 bacteria
Procedure: as §7

## CO/N=C(\C(=O)N[C@@H]1C(=O)N2C(C(=O)O)=C(CSc3nc(=O)c(=O)[nH]n3C)CS[C@H]12)c1csc(N)n1 [Ceftriaxone, ceftriaxone]
[1]; 18 hour incubation in nutrient broth, 0.1 CFU/ml
  Detection of Neisseria gonorrheae: +
[1]; 18 hour incubation in nutrient broth, 1 CFU/ml
  Detection of Neisseria gonorrheae: +
[1]; 18 hour incubation in nutrient broth, 10 CFU/ml
  Detection of Neisseria gonorrheae: +
[1]; 18 hour incubation in nutrient broth, 100 CFU/ml
  Detection of Neisseria gonorrheae: +
[1]; 18 hour incubation in nutrient broth, 1,000 CFU/ml
  Detection of Neisseria gonorrheae: +
[1]; 18 hour incubation in nutrient broth, 10,000 CFU/ml
  Detection of Neisseria gonorrheae: +
[2]
  N-Assay result of wells containing N. gonorrheae: negative

## CCC[C@@H]1C[C@@H](C(=O)N[C@@H]([C@H]2O[C@H](SC)[C@H](O)[C@@H](O)[C@H]2O)[C@H](C)Cl)N(C)C1 [Clindamycin, clindamycin]
[3]; 10 CFU/ml
  Detection of GBS: +
[3]; 100 CFU/ml
  Detection of GBS: +
[3]; 1,000 CFU/ml
  Detection of GBS: +
[3]; 10,000 CFU/ml
  Detection of GBS: +
[3]; summary of Table 1, incubated 24 hours at 37° C. with Clindamycin
  lowest dilution at which GBS resistant to Clindamycin was positive: 100 bacteria/ml

## CC1(C)S[C@@H]2[C@H](NC(=O)Cc3ccccc3)C(=O)N2[C@H]1C(=O)O [Penicillin G, penicillin G]
[4]; Table 2, with Penicillin G
  N-Assay result of wells containing E. faecalis: negative
[4]; 100,000 CFU/ml
  Detection of Enterococcus faecalis: +
[4]; 1,000,000 CFU/ml
  Detection of Enterococcus faecalis: +
[4]; 10,000,000 CFU/ml
  Detection of Enterococcus faecalis: +
[5]; Table 2, with Penicillin G
  lowest dilution at which E. faecium was positive: 100 bacteria/ml
[5]; 1 CFU/ml
  Detection of Enterococcus faecium: +
[5]; 10 CFU/ml
  Detection of Enterococcus faecium: +
[5]; 100 CFU/ml
  Detection of Enterococcus faecium: +
[5]; 1,000 CFU/ml
  Detection of Enterococcus faecium: +
[5]; 10,000 CFU/ml
  Detection of Enterococcus faecium: +
[5]; 100,000 CFU/ml
  Detection of Enterococcus faecium: +
[5]; 1,000,000 CFU/ml
  Detection of Enterococcus faecium: +
[5]; 10,000,000 CFU/ml
  Detection of Enterococcus faecium: +
[6]; penicillin 0.5, 1.0, 2.0 μg/ml, 10^8 bacteria, Pen-R Strain 31426
  OD450 signal of bound N. gonorrheae between concentrations of penicillin: did not significantly vary
[6]; wells containing Pen-R strain 31426 with penicillin
  growth by turbidity at OD600: increasing turbidity
[7]
  OD450 signal of bound N. gonorrheae with increasing concentrations of penicillin: progressively decreasing positive signal
